Assay results from the CheMixHub viscosity set.

Assay: xn = mol fraction of the nth substance listed

OCCCO + OCCO
viscosity [mPa·s], 101 kPa
Conditions	x2 = 0.111	x2 = 0.2019	x2 = 0.359	x2 = 0.4612	x2 = 0.5502	x2 = 0.6262	x2 = 0.7342	x2 = 0.8289	x2 = 0.9111
298.15 K	39.52	37.55	34.13	31.81	–	–	24.96	22.36	19.9
303.15 K	31.57	29.96	27.17	25.33	23.65	22.16	19.81	17.71	15.79
308.15 K	25.57	24.22	21.94	20.45	19.09	17.92	16.08	14.42	12.89

NC=O + CC(=O)O
viscosity [mPa·s]
Conditions	298.15 K	303.15 K	308.15 K	313.15 K
101 kPa, x1 = 0.109	2.001	–	–	1.462
101 kPa, x1 = 0.2105	2.855	–	–	2.029
101 kPa, x1 = 0.3058	3.481	–	–	2.361
101 kPa, x1 = 0.4011	3.864	–	–	2.589
101 kPa, x1 = 0.5018	4.217	–	–	2.791
101 kPa, x1 = 0.5944	4.341	–	–	2.904
101 kPa, x1 = 0.7026	4.316	–	–	2.903
101 kPa, x1 = 0.7961	4.146	–	–	2.899
101 kPa, x1 = 0.9038	3.824	–	–	2.589
101.33 kPa, x1 = 0.0782	1.54	1.39	1.28	1.19
101.33 kPa, x1 = 0.1552	2.07	1.84	1.68	1.54
101.33 kPa, x1 = 0.2319	2.63	2.3	2.09	1.89
101.33 kPa, x1 = 0.3049	3.11	2.71	2.43	2.19
101.33 kPa, x1 = 0.3832	3.54	3.06	2.73	2.45
101.33 kPa, x1 = 0.4595	3.85	3.32	2.95	2.65
101.33 kPa, x1 = 0.5395	4.04	3.52	3.08	2.81
101.33 kPa, x1 = 0.6155	4.02	3.5	3.1	2.77
101.33 kPa, x1 = 0.6939	3.97	3.49	3.08	2.75
101.33 kPa, x1 = 0.7683	3.83	3.4	2.97	2.67
101.33 kPa, x1 = 0.8477	3.57	3.1	2.79	2.53
101.33 kPa, x1 = 0.9228	3.36	2.94	2.65	2.4

CCCCCCCCCCC + CCCCCCCCC
298.15 K, 101.33 kPa
Conditions	viscosity [mPa·s]
x2 = 0.1034	1.03
x2 = 0.2088	0.9658
x2 = 0.3024	0.931
x2 = 0.4073	0.8929
x2 = 0.5057	0.8476
x2 = 0.6037	0.8141
x2 = 0.7055	0.77
x2 = 0.8002	0.7331
x2 = 0.9038	0.687

OCCCl + CCCO
viscosity [mPa·s], 101.33 kPa
Conditions	x1 = 0.099	x1 = 0.1945	x1 = 0.2948	x1 = 0.3912	x1 = 0.4924	x1 = 0.5924	x1 = 0.693	x1 = 0.8071	x1 = 0.8959
298.15 K	1.761	1.802	1.842	1.92	2.028	2.148	2.281	2.428	2.6
303.15 K	1.58	1.62	1.67	1.735	1.813	1.891	2.02	2.16	2.3
308.15 K	1.4	1.44	1.48	1.542	1.606	1.678	1.76	1.88	2.001
